Reference: patent US20240342318A1, “CONJUGATES COMPRISING COVALENT BINDERS FOR TARGETING INTRACELLULAR PROTEINS” (RayzeBio, Inc., priority 2021, published 2024)
Read-outs that look alike come from different tables or passages of the source.

Columns and labels:
EGFR (L858R, T790M) = target: T1, EGFR (L858R, T790M) (Homo sapiens, UniProt P00533, L858R/T790M); test: In vitro kinase binding assay (phage/DNA-tagged kinase, affinity beads, qPCR), mutant EGFR; conditions: for Binding Affinity ratio of WT/DM: ratio of Kd EGFR (WT) to Kd EGFR (L858R, T790M)
T1 construct: The EGFR constructs span amino acids R669 to V1011 of the EGFR protein; T7 phage display fusion (kinase-tagged T7 phage) or DNA tag for qPCR; made in house; host or cells: E. coli (BL21-derived) infected with T7 phage for most assays; remaining kinases in HEK-293
Method: (§1) For most assays, kinase-tagged T7 phage strains were prepared in an E. coli host derived from the BL21 strain. For the EGFR assays, wild-type EGFR, or mutant EGFR (T790M, L858R) were utilized. The EGFR constructs span amino acids R669 to V1011 of the EGFR protein. E. coli were grown to log-phase and infected with T7 phage and incubated with shaking at 32° C. until lysis. The lysates were centrifuged and filtered to remove cell debris. The remaining kinases were produced in HEK-293 cells and subsequently tagged with DNA for qPCR detection. Streptavidin-coated magnetic beads were treated with biotinylated small molecule ligands for 30 minutes at room temperature to generate affinity resins for kinase assays. The liganded beads were blocked with excess biotin and washed with blocking buffer (SeaBlock (Pierce), 1% BSA, 0.05% Tween 20, 1 mM DTT) to remove unbound ligand and to reduce non-specific binding. Binding reactions were assembled by combining kinases, liganded affinity beads, and test compounds in 1× binding buffer (20% SeaBlock, 0.17×PBS, 0.05% Tween 20, 6 mM DTT). Test compounds were prepared as 111× stocks in 100% DMSO. Kds were determined using an 11-point 3-fold compound dilution series with three DMSO control points. All compounds for Kd measurements are distributed by acoustic transfer (non-contact dispensing) in 100% DMSO. The compounds were then diluted directly into the assays such that the final concentration of DMSO was 0.9%. All reactions performed in polypropylene 384-well plate. Each was a final volume of 0.02 ml. The assay plates were incubated at room temperature with shaking for 1 hour and the affinity beads were washed with wash buffer (lx PBS, 0.05% Tween 20). The beads were then re-suspended in elution buffer (lx PBS, 0.05% Tween 20, 0.5 μM nonbiotinylated affinity ligand) and incubated at room temperature with shaking for 30 minutes. The kinase concentration in the eluates was measured by qPCR.

EGFR (WT) = target: T2, EGFR (WT) (Homo sapiens, UniProt P00533); test: In vitro kinase binding assay (phage/DNA-tagged kinase, affinity beads, qPCR), wild-type EGFR
T2 construct: The EGFR constructs span amino acids R669 to V1011 of the EGFR protein; T7 phage display fusion (kinase-tagged T7 phage) or DNA tag for qPCR; made in house; host or cells: E. coli (BL21-derived) infected with T7 phage for most assays; remaining kinases in HEK-293
Method: as §1

[1] = mutant EGFR (T790M, L858R) construct R669 to V1011, 11-point 3-fold dilution series, 1 hour at room temperature, read-out: EGFR (L858R, T790M) Kd
[2] = wild-type EGFR construct R669 to V1011, 11-point 3-fold dilution series, 1 hour at room temperature, read-out: EGFR (WT) Kd

T2 sequence (P00533 669-1011): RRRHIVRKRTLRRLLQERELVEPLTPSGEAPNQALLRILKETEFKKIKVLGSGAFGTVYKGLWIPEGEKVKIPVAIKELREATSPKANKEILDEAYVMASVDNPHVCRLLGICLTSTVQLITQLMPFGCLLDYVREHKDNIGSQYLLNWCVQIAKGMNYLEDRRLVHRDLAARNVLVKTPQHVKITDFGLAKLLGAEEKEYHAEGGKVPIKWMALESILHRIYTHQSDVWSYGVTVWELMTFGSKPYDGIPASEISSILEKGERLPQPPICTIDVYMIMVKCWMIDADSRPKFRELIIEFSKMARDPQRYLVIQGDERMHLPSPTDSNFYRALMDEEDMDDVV
T1 sequence (P00533 669-1011 T790M/L858R): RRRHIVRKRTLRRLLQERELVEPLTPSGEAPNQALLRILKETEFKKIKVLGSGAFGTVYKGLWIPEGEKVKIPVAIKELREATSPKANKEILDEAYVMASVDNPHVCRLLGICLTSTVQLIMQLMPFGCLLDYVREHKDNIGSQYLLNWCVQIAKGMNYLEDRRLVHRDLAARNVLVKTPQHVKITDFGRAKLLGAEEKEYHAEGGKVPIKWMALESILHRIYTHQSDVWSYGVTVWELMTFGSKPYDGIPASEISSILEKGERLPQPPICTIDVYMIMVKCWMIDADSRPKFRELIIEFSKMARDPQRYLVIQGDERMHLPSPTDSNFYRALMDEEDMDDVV

C=CC(=O)N[C@@H]1CN(c2nc(Nc3cn(CCCNC(=O)CN4CCN(CC(=O)O)CCN(CC(=O)O)CCN(CC(=O)O)CC4)nc3OC)c3ncn(C)c3n2)C[C@H]1F [Compound 001, 2-[4,7-bis(carboxymethyl)-10-[2-[3-[4-[[2-[(3R,4R)-3-fluoro-4-(prop-2-enoylamino)pyrrolidin-1-yl]-9-methyl-purin-6-yl]amino]-3-methoxy-pyrazol-1-yl]propylamino]-2-oxo-ethyl]-1,4,7,10-tetrazacyclododec-1-yl]acetic acid]
Kd (EGFR (L858R, T790M); [1]): < 1 nM | Binding Affinity ratio of WT/DM (EGFR (L858R, T790M)): A (4 < A ≤ 25) | Kd (EGFR (WT); [2]): 2 to 100 nM

C=CC(=O)N[C@@H]1CN(c2nc(Nc3cn(CCCNC(=O)CN4CCN5CCN6CCN(CC4)CC(=O)[O][Lu]([O]C(=O)C5)[O]C(=O)C6)nc3OC)c3ncn(C)c3n2)C[C@H]1F [Compound 001-Lu, N-[(3R,4R)-4-fluoro-1-[6-[[3-methoxy-1-[3-[[2-(3,16,19-trioxo-2,17,18-trioxa-5,8,11,14-tetraza-1λ3-lutetatricyclo[9.6.3.25,14]docosan-8-yl)acetyl]amino]propyl]pyrazol-4-yl]amino]-9-methyl-purin-2-yl]pyrrolidin-3-yl]prop-2-enamide]
Kd (EGFR (L858R, T790M)): < 1 nM | Binding Affinity ratio of WT/DM (EGFR (L858R, T790M)): A (4 < A ≤ 25) | Kd (EGFR (WT)): 2 to 100 nM

C=CC(=O)N[C@@H]1CN(c2nc(Nc3cn(CCCCCNC(=O)CN4CCN(CC(=O)O)CCN(CC(=O)O)CCN(CC(=O)O)CC4)nc3OC)c3ncn(C)c3n2)C[C@H]1F [Compound 002, 2-[4,7-bis(carboxymethyl)-10-[2-[5-[4-[[2-[(3R,4R)-3-fluoro-4-(prop-2-enoylamino)pyrrolidin-1-yl]-9-methyl-purin-6-yl]amino]-3-methoxy-pyrazol-1-yl]pentylamino]-2-oxo-ethyl]-1,4,7,10-tetrazacyclododec-1-yl]acetic acid]
Kd (EGFR (L858R, T790M); [1]): < 1 nM | Kd (EGFR (WT); [2]): 2 to 100 nM

C=CC(=O)N[C@@H]1CN(c2nc(Nc3cn(CCCCCNC(=O)CN4CCN5CCN6CCN(CC4)CC(=O)[O][Lu]([O]C(=O)C5)[O]C(=O)C6)nc3OC)c3ncn(C)c3n2)C[C@H]1F [Compound 002-Lu, N-[(3R,4R)-4-fluoro-1-[6-[[3-methoxy-1-[5-[[2-(3,16,19-trioxo-2,17,18-trioxa-5,8,11,14-tetraza-1λ3-lutetatricyclo[9.6.3.25,14]docosan-8-yl)acetyl]amino]pentyl]pyrazol-4-yl]amino]-9-methyl-purin-2-yl]pyrrolidin-3-yl]prop-2-enamide]
Kd (EGFR (L858R, T790M)): < 1 nM | Binding Affinity ratio of WT/DM (EGFR (L858R, T790M)): A (4 < A ≤ 25) | Kd (EGFR (WT)): 2 to 100 nM

C=CC(=O)N[C@@H]1CN(c2nc(Nc3cn(CCCCCCCNC(=O)CN4CCN(CC(=O)O)CCN(CC(=O)O)CCN(CC(=O)O)CC4)nc3OC)c3ncn(C)c3n2)C[C@H]1F [Compound 003, 2-[4,7-bis(carboxymethyl)-10-[2-[7-[4-[[2-[(3R,4R)-3-fluoro-4-(prop-2-enoylamino)pyrrolidin-1-yl]-9-methyl-purin-6-yl]amino]-3-methoxy-pyrazol-1-yl]heptylamino]-2-oxo-ethyl]-1,4,7,10-tetrazacyclododec-1-yl]acetic acid]
Kd (EGFR (L858R, T790M); [1]): < 1 nM | Binding Affinity ratio of WT/DM (EGFR (L858R, T790M)): A (4 < A ≤ 25) | Kd (EGFR (WT); [2]): 2 to 100 nM

C=CC(=O)N[C@@H]1CN(c2nc(Nc3cn(CCCCCCCNC(=O)CN4CCN5CCN6CCN(CC4)CC(=O)[O][Lu]([O]C(=O)C5)[O]C(=O)C6)nc3OC)c3ncn(C)c3n2)C[C@H]1F [Compound 003-Lu, N-[(3R,4R)-4-fluoro-1-[6-[[3-methoxy-1-[7-[[2-(3,16,19-trioxo-2,17,18-trioxa-5,8,11,14-tetraza-1λ3-lutetatricyclo[9.6.3.25,14]docosan-8-yl)acetyl]amino]heptyl]pyrazol-4-yl]amino]-9-methyl-purin-2-yl]pyrrolidin-3-yl]prop-2-enamide]
Kd (EGFR (L858R, T790M)): < 1 nM | Binding Affinity ratio of WT/DM (EGFR (L858R, T790M)): A (4 < A ≤ 25) | Kd (EGFR (WT)): 2 to 100 nM
